Results as given in patent US20220362771A1, “USE OF DROPLET SINGLE CELL EPIGENOME PROFILING FOR PATIENT STRATIFICATION” (HiFiBio SAS, priority 2018, published 2022).
Read-outs that look alike come from different tables or passages of the source.

Columns and labels:
[1] = tested on: HBCx-95 triple-negative breast tumor PDX; experiment: breast tumor PDX model of acquired resistance to Capecitabine; format: in vivo, mice
Protocol: (a) n=6 mice with HBCx-95 derivatives were treated with Capecitabine for 6 weeks. Graphs represent relative tumor volumes (RTV, mm3) with time. Mice with recurrent tumors were treated for a second round of Capecitabine when PDX reached a volume of over 200 mm3 (mice #35, #40 & #33). […] Samples studied in manuscript are indicated with a dashed rectangle. (b) Histograms of the distribution of scChIP-seq raw and unique sequencing reads per cell in untreated HBCx-95 and Capecitabine-resistant HBCx-95-CapaR PDX. (c) Scatter plot displaying the log 2 enrichments in cumulative single-cell versus bulk H3K27me3 ChIP-seq data, calculated based on the counts per million mapped reads in 50 kb genomic bins. Pearson correlation score and p-value are computed genome-wide. (d) Distribution of the log 2 enrichments in 50 kb genomic bins for cumulative single-cell and bulk H3K27me3 ChIP-seq data. Amplitude between maximum and minimum log 2 enrichments are indicated on the top right for each ChIP-seq method (either bulk or single-cell).
It was profiled the H3K27me3 landscape at single-cell resolution for both sensitive and resistant xenografts, HBCx-95 and HBCx-95-CapaR (FIG. 17b), and it was also performed scRNA-seq to evaluate transcriptional heterogeneity within the same cell suspension (FIG. 18a). Cumulative single-cell chromatin profiles match bulk ChIP-seq profiles (FIG. 17c-d, r=0.89 with p<10-15).

[2] = tested on: HBCx-22 luminal ER+ breast PDX; conditions: cited from earlier work
MNase = MNase (Staphylococcus aureus, UniProt P00644); experiment: EGTA inactivation of MNase activity in droplets; format: biochemical; conditions: fraction of oligonucleotide remaining measured by TapeStation, normalized to droplets without MNase
Protocol: FIG. 3 depicts the concentration of EGTA necessary to fully inactivates MNase activity in droplets. The fraction of oligonucleotide remaining after incubation was measured by TapeStation and normalized to the digestion negative control (i.e droplets without MNase). 26 mM final concentration of EGTA fully inactivated MNase in droplets.
At the end of the encapsulation, droplets are incubated off-chip for single-cell chromatin fragmentation. Cells are lysed in droplets, making their nuclear DNA accessible for MNase enzyme. The kinetic of the digestion is particularly important to yield preferentially mono-nucleosomes, which are retained in the droplet. The ideal incubation time is defined as the time necessary to get 100% of nuclear DNA fragmented into mono-nucleosomes. The digestion conditions including lysis buffer composition, MNase concentration and incubation time are precisely calibrated for each sample by performing a time-course study. The calibration is carried out as follows: 45 pl droplets containing cells, lysis buffer and MNase are produced, collected in a collection tube and placed at 37° C. for different incubation time. At each time point, a fraction of droplets is broken and MNase immediately inactivated by addition of EGTA (see FIG. 3). DNA fragments are then purified and analyzed by electrophoresis. […]

## CCCCCOC(=O)Nc1nc(=O)n([C@@H]2O[C@H](C)[C@@H](O)[C@H]2O)cc1F [Capecitabine]
[1]; mouse #40, recurrent tumor, second round of Capecitabine, PDX extracted at 1080 mm3 as HBCx-95-CapaR
  tumor response to Capecitabine (relative tumor volume): did not respond
[1]; xenograft derivatives from an individual patient (HBCx-95), before two cycles of treatment
  tumor response to Capecitabine: initially responsive

## CC/C(=C(\c1ccccc1)c1ccc(OCCN(C)C)cc1)c1ccccc1 [Tamoxifen]
[2]; HBCx-22-TamR tumor derivative, previously characterized
  tumor response to Tamoxifen: acquired resistance
[2]; HBCx-22 PDX
  tumor response to Tamoxifen: responsive

## O=C(O)CN(CCOCCOCCN(CC(=O)O)CC(=O)O)CC(=O)O [EGTA]
MNase
  final concentration of EGTA that fully inactivated MNase in droplets: 26 mM
